Values of other authors as cited in patent publication US20220087927A1, “ANTIMICROBIAL AGENT” (priority 2020, published 2022).

What was measured:
Conditions in all cases: suspension 10^7-10^8 per ml
[1] = test system: Koji mold (asprogillus brasiliensis)
[2] = test system: E. coli (Escherichia coli)
[3] = test system: Candida (candida albicians)
Staphylococcus aureus = test system: Staphylococcus aureus
Pseudomonas aeruginosa = test system: Pseudomonas aeruginosa

Row | Compound | MIC (minimum growth prevention concentration) [1] | MIC (minimum growth prevention concentration) [2] | MIC (minimum growth prevention concentration) [3] | MIC (minimum growth prevention concentration) (Staphylococcus aureus) | MIC (minimum growth prevention concentration) (Pseudomonas aeruginosa)
1 | OCCCCO [butylene glycol] | 18% | 10% | 14% | 16% | 8%
2 | CCO [ethanol] | 5% | 5% | 7% | 9% | 5%
